Common to all, as to assay type: functional, organism-based
Assay [1] deals with Plasmodium berghei. Nature of the assay: Antimalarial activity against Plasmodium berghei infected in mouse assessed as complete cure at 40 mg/kg. Also noted: dose 40 mg/kg.
The subject of assay [2] is Plasmodium berghei. Nature of the assay: Antimalarial activity against Plasmodium berghei infected in mouse at 10 mg/kg. Also noted: dose 10 mg/kg.
For assay [3], the system named is Plasmodium berghei. The assay is described as follows: Antimalarial activity against Plasmodium berghei infected in mouse assessed as complete cure at 160 mg/kg. More on the design: dose 160 mg/kg.
Assay [4] deals with Plasmodium berghei. Nature of the assay: Antimalarial activity against Plasmodium berghei infected in mouse at 20 mg/kg. More on the design: dose 20 mg/kg.

Structures are written as SMILES. The source made the active and inactive calls. No cut-off for these calls is given here.

This passage reports Activity results from ChEMBL document CHEMBL3272256, “Antimalarials. 11. 2-Vinylogs of substituted 2-aryl-4-quinoline amino alcohols” (J Med Chem, 1976).

As to `Cc1cc(C)c2nc3c(c([C@H]4OC(c5ccc(Cl)cc5)N5CCCC[C@H]45)c2c1)CCC3` (mixture of isomers), the result in the assay on Plasmodium berghei [1] was inactive.

For `CCCCN(CCCC)CC(O)c1c2c(nc3c(C)cc(C)cc13)/C(=C/c1ccc(Cl)cc1)CC2` (stereo not given), the result with Plasmodium berghei [2] and in the assay on Plasmodium berghei [1] was Active.

As to `CCCCN(CCCC)CC(O)c1cc(/C=C/c2ccc(Cl)cc2)nc2c(C)cc(C)cc12` (stereo not given), the outcome with Plasmodium berghei [3] and in the assay on Plasmodium berghei [4] was Active.
